Test results from ChEMBL document CHEMBL1154790, “Lorneic acids, trialkyl-substituted aromatic acids from a marine-derived actinomycete” (J Nat Prod, 2009).
Active and inactive are the calls of the source. The calls are words filed in the database; no cut-off is given here.

Experiments:
[1] = biological target: T1, cGMP-specific 3',5'-cyclic phosphodiesterase (Homo sapiens, UniProt O76074); assay: Inhibition of human platelet PDE5 assessed as [3H]cGMP to [3H]GMP conversion pretreated 15 mins before substrate addition measured after 20 mins
[2] = biological target: T1, cGMP-specific 3',5'-cyclic phosphodiesterase; assay: Inhibition of human platelet PDE5 assessed as [3H]cGMP to [3H]GMP conversion at 10 uM pretreated 15 mins before substrate addition measured after 20 mins

IC50 [1] | inhibition [2] | SMILES
87.1 µM | – | CCCCCC(O)c1cc(C)ccc1/C=C/CC(=O)O (stereo not drawn) [LORNEIC ACID B]
12.6 µM | Active | CCCC/C=C/c1cc(C)ccc1/C=C/CC(=O)O [LORNEIC ACID A]
